Results reported in patent US10947272B2, “BACE1 inhibitor peptides” (HOFFMANN-LA ROCHE INC., priority 2015, dated 2021).
Where a name gives a salt, the structure may show the parent alone. Numbered stars: 1 amine (or outer) side, 2 acyl side, 3 side chain; on linkers, the order of the positions; unused ones are H or OH. Square brackets hold non-standard residues; d marks the D form. Ends that are not written are not given here. Peptide text beside a SMILES is read from it. MetSta(3S,4S) = CSCC[C@H](N[*:1])[C@@H](O)CC(=O)[*:2]; MetSta = statine analogue named MetSta in the name; Sta = CC(C)C[C@H](N)[C@@H](O)CC(=O)O; PEG4 = NCCOCCOCCOCCOCCC(=O)O

What follows are molecules tested against T1, BACE1 (Homo sapiens, UniProt P56817) (assay: Cellular Aβ-lowering assay (Aβ40 ELISA of culture supernatant)). Settings: IC 50, dual-site BACE1 inhibitors; HEK293 cells stably transfected with human APP wt (APP695); 18-20 hrs incubation; Aβ40 in supernatant.
T1 construct: Human HEK293 cells which are stably transfected with a vector expressing a cDNA of the human APP wt gene (APP695); endogenous in cells; host or cells: HEK293 (human), stably transfected with human APP695 wt cDNA
T1 sequence (P56817 46-501): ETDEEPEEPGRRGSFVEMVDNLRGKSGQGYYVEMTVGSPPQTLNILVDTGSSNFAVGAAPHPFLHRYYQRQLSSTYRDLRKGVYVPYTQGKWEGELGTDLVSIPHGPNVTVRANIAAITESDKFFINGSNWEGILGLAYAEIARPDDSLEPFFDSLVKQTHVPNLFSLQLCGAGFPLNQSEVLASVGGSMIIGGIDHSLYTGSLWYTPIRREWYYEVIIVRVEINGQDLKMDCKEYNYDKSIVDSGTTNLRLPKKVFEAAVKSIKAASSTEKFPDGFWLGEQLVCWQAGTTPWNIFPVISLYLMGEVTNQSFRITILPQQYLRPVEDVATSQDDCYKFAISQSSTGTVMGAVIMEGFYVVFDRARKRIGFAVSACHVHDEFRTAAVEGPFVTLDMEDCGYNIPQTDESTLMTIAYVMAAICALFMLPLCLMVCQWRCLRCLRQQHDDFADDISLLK
Assay type: cell-based
Description: The compounds were investigated in accordance with the test given hereinafter. Cellular Aβ-Lowering Assay: Human HEK293 cells which are stably transfected with a vector expressing a cDNA of the human APP wt gene (APP695) were used to assess the potency of the compounds in a cellular assay. The cells were seeded in 96-well microtiter plates in cell culture medium (Iscove, plus 10% (v/v) fetal bovine serum, glutamine, penicillin/streptomycin) to about 80% confluence and the compounds were added at a 10× concentration in 1/10 volume of medium without FCS containing 8% DMSO (final concentration of DMSO was kept at 0.8% v/v). After 18-20 hrs incubation at 37° C. and 5% CO2 in a humidified incubator the culture supernatant was harvested for the determination of Aβ40 concentrations. 96 well ELISA plates (e.g., Nunc MaxiSorb) were coated with monoclonal antibody which specifically recognize the C-terminal end of Aβ40 (Brockhaus et al., NeuroReport 9, 1481-1486; 1998). After blocking of non-specific binding sites with e.g. 1% BSA and washing, the culture supernatants were added in suitable dilutions together with a horseradish peroxidase-coupled Aβ detection antibody (e.g., antibody 4G8, Senetek, Maryland Heights, Mo.) and incubated for 5 to 7 hrs. Subsequently the wells of the microtiter plate were washed extensively with Tris-buffered saline containing 0.05% Tween 20 and the assay was developed with tetramethylbenzidine/H2O2 in citric acid buffer. After stopping the reaction with one volume 1 N H2SO4 the reaction was measured in an ELISA reader at 450 nm wavelength. The concentrations of Aβ in the culture supernatants were calculated from a standard curve obtained with known amounts of pure Aβ peptide.
`CC(C)C[C@H](NC(=O)[C@@H]1CCCN1C(=O)[C@@H](CCCCN)NC(=O)[C@H](Cc1ccccc1)NC(=O)[C@H](Cc1ccc(O)cc1)NC(=O)[C@@H]1CCCN1C(=O)[C@@H](N)Cc1ccc(O)cc1)C(=O)NCCOCCOCCOCCOCCC(=O)N[C@@H](CCC(=O)O)C(=O)N[C@H](C(=O)N[C@@H](CC(N)=O)C(=O)N[C@@H](CC(C)C)[C@@H](O)CC(=O)N[C@H](C(=O)N[C@@H](C)C(=O)N[C@@H](CCC(=O)O)C(=O)N1CCC[C@@H]1C(N)=O)C(C)C)C(C)C` [Example 24, H-Tyr-Pro-Tyr-Phe-DLys-Pro-Leu-PEG(4)-Glu-Val-Asn-Sta-Val-Ala-Glu-DPro-NH2 × 2TFA] (H-YPYF[dK]PL[PEG4]EVN[Sta]VAE[dP]-NH2) gave an IC50 greater than 40 µM. `CC[C@H](C)[C@H](NC(=O)[C@@H](CCCCN)NC(=O)[C@H](Cc1ccc(O)cc1)NC(=O)[C@@H]1CCCN1C(=O)[C@@H](N)Cc1ccc(O)cc1)C(=O)N1CCC[C@H]1C(=O)N[C@@H](CC(C)C)C(=O)NCC(=O)N[C@H](CCCCN)C(=O)NCC(=O)N[C@@H](CCC(=O)O)C(=O)N[C@H](C(=O)N[C@@H](CC(N)=O)C(=O)N[C@@H](CC(C)C)[C@@H](O)CC(=O)N[C@H](C(=O)N[C@@H](C)C(=O)N[C@@H](CCC(=O)O)C(=O)N1CCC[C@@H]1C(N)=O)C(C)C)C(C)C` [Example 33, H-Tyr-Pro-Tyr-DLys-Ile-Pro-Leu-Gly-DLys-Gly-Glu-Val-Asn-Sta-Val-Ala-Glu-DPro-NH2] (H-YPY[dK]IPLG[dK]GEVN[Sta]VAE[dP]-NH2) showed an IC50 of 34.8 µM.

Same assay, conditions: dual-site BACE1 inhibitors; HEK293 cells stably transfected with human APP wt (APP695); 18-20 hrs incubation; Aβ40 in supernatant; read-out: IC 50
In the case of `CC[C@H](C)[C@H](NC(=O)[C@H](Cc1ccccc1)NC(=O)[C@H](Cc1ccc(O)cc1)NC(=O)[C@@H]1CCCN1C(=O)[C@@H](N)Cc1ccc(O)cc1)C(=O)N1CCC[C@H]1C(=O)N[C@@H](CC(C)C)C(=O)NCC(=O)NCC(=O)NCC(=O)N[C@@H](CCC(=O)O)C(=O)N[C@H](C(=O)N[C@@H](CC(N)=O)C(=O)N[C@@H](CC(C)C)[C@@H](O)CC(=O)N[C@H](C(=O)N[C@@H](C)C(=O)N[C@@H](CCC(=O)O)C(=O)N1CCC[C@@H]1C(N)=O)C(C)C)C(C)C` [Example 2, Tyr-Pro-Tyr-Phe-Ile-Pro-Leu-Gly-Gly-Gly-Glu-Val-Asn-Sta-Val-Ala-Glu-DPro-NH2 × TFA], the IC50 is reported as 0.42 µM. `CC[C@H](C)[C@H](NC(=O)[C@H](Cc1ccccc1)NC(=O)[C@H](Cc1ccc(O)cc1)NC(=O)[C@@H]1CCCN1C(=O)[C@@H](N)Cc1ccc(O)cc1)C(=O)N1CCC[C@H]1C(=O)N[C@H](CCCCN)C(=O)NCC(=O)N[C@H](CCCCN)C(=O)NCC(=O)N[C@@H](CCC(=O)O)C(=O)N[C@H](C(=O)N[C@@H](CC(N)=O)C(=O)N[C@@H](CCSC)[C@@H](O)CC(=O)N[C@H](C(=O)N[C@@H](C)C(=O)N[C@@H](CCC(=O)O)C(=O)N1CCC[C@H]1C(N)=O)C(C)C)C(C)C` [Example 18, Tyr-Pro-Tyr-Phe-Ile-Pro-DLys-Gly-DLys-Gly-Glu-Val-Asn-MetSta-Val-Ala-Glu-Pro-NH2 × 3TFA] gave an IC50 of 0.015 µM. For `CC[C@H](C)[C@H](NC(=O)[C@H](Cc1ccccc1)NC(=O)[C@H](Cc1ccc(O)cc1)NC(=O)[C@@H](CCCCN)NC(=O)[C@@H](N)Cc1ccc(O)cc1)C(=O)N1CCC[C@H]1C(=O)N[C@@H](CC(C)C)C(=O)NCC(=O)N[C@H](CCCCN)C(=O)NCC(=O)N[C@@H](CCC(=O)O)C(=O)N[C@H](C(=O)N[C@@H](CC(N)=O)C(=O)N[C@@H](CC(C)C)[C@@H](O)CC(=O)N[C@H](C(=O)N[C@@H](C)C(=O)N[C@@H](CCC(=O)O)C(=O)N1CCC[C@@H]1C(N)=O)C(C)C)C(C)C` [Example 31, H-Tyr-DLys-Tyr-Phe-Ile-Pro-Leu-Gly-DLys-Gly-Glu-Val-Asn-Sta-Val-Ala-Glu-DPro-NH2] (H-Y[dK]YFIPLG[dK]GEVN[Sta]VAE[dP]-NH2), the IC50 was greater than 40 µM. With `CC(C)C[C@H](NC(=O)[C@@H](CCCCN)NC(=O)[C@H](Cc1ccccc1)NC(=O)[C@H](Cc1ccc(O)cc1)NC(=O)[C@@H]1CCCN1C(=O)[C@@H](N)Cc1ccc(O)cc1)C(=O)NCCOCCOCCOCCOCCC(=O)N[C@@H](CCC(=O)O)C(=O)N[C@H](C(=O)N[C@@H](CC(N)=O)C(=O)N[C@@H](CC(C)C)[C@@H](O)CC(=O)N[C@H](C(=O)N[C@@H](C)C(=O)N[C@@H](CCC(=O)O)C(=O)N1CCC[C@@H]1C(N)=O)C(C)C)C(C)C` [Example 23, H-Tyr-Pro-Tyr-Phe-DLys-Leu-PEG(4)-Glu-Val-Asn-Sta-Val-Ala-Glu-DPro-NH2 × 3TFA] (H-YPYF[dK]L[PEG4]EVN[Sta]VAE[dP]-NH2) the IC50 was greater than 40 µM. With `CC[C@H](C)[C@H](NC(=O)[C@H](Cc1ccccc1)NC(=O)[C@H](Cc1ccc(O)cc1)NC(=O)[C@@H]1CCCN1C(=O)[C@@H](N)Cc1ccc(O)cc1)C(=O)N[C@H](CCCCN)C(=O)N[C@@H](CC(C)C)C(=O)NCC(=O)N[C@H](CCCCN)C(=O)NCC(=O)N[C@@H](CCC(=O)O)C(=O)N[C@H](C(=O)N[C@@H](CC(N)=O)C(=O)N[C@@H](CC(C)C)[C@@H](O)CC(=O)N[C@H](C(=O)N[C@@H](C)C(=O)N[C@@H](CCC(=O)O)C(=O)N1CCC[C@@H]1C(N)=O)C(C)C)C(C)C` [Example 12, Tyr-Pro-Tyr-Phe-Ile-DLys-Leu-Gly-DLys-Gly-Glu-Val-Asn-Sta-Val-Ala-Glu-DPro-NH2 × 3TFA] (H-YPYFI[dK]LG[dK]GEVN[Sta]VAE[dP]-NH2) the IC50 was greater than 40 µM.

Same assay, conditions: exosite motifs alone; HEK293 cells stably transfected with human APP wt (APP695); Aβ40 in supernatant; read-out: IC 50
“YQTFKPANGS [Example E2, Ac-Tyr-Gln-Thr-Phe-Lys-Pro-Ala-Asn-Gly-Ser-NH2, exosite motif peptide tested alone]” gave an IC50 greater than 40 µM. Work on `CC[C@H](C)[C@H](NC(=O)[C@H](Cc1ccccc1)NC(=O)[C@H](CCCNC(=N)N)NC(=O)[C@H](C)NC(=O)CNC(=O)[C@@H](NC(=O)[C@H](CO)NC(C)=O)[C@@H](C)O)C(=O)N1CCC[C@H]1C(=O)N[C@@H](C)C(=O)N[C@@H](CC(N)=O)C(N)=O` [Example E3, Ac-Ser-Thr-Gly-Ala-Arg-Phe-Ile-Pro-Ala-Asn-NH2] (Ac-STGARFIPAN-NH2) yielded an IC50 greater than 40 µM. `CC[C@H](C)[C@H](NC(=O)[C@H](Cc1ccccc1)NC(=O)[C@H](CCCCN)NC(=O)[C@@H]1CCCN1C(=O)[C@H](Cc1ccc(O)cc1)NC(=O)[C@H](CC(=O)O)NC(=O)CNC(C)=O)C(=O)N1CCC[C@H]1C(=O)N[C@@H](C)C(=O)N[C@@H](CO)C(N)=O` [Example E5, Ac-Gly-Asp-Tyr-Pro-Lys-Phe-Ile-Pro-Ala-Ser-NH2] (Ac-GDYPKFIPAS-NH2) gave an IC50 greater than 40 µM. With `CC(=O)N[C@@H](CCC(N)=O)C(=O)N[C@@H](CCC(N)=O)C(=O)N[C@@H](Cc1ccc(O)cc1)C(=O)N1CCC[C@H]1C(=O)N[C@@H](Cc1ccc(O)cc1)C(=O)N[C@@H](Cc1ccccc1)C(=O)N[C@@H](CCCCN)C(=O)N1CCC[C@H]1C(=O)N[C@@H](C)C(=O)N[C@@H](CC(N)=O)C(N)=O` [Example E1, Ae-Gln-Gln-Tyr-Pro-Tyr-Phe-Lys-Pro-Ala-Asn-NH2] (Ac-QQYPYFKPAN-NH2) the IC50 was greater than 40 µM. For `CC[C@H](C)[C@H](NC(=O)[C@H](Cc1ccccc1)NC(=O)[C@H](CCCCN)NC(=O)[C@@H]1CCCN1C(=O)[C@H](Cc1ccc(O)cc1)NC(=O)[C@H](CC(=O)O)NC(=O)CNC(C)=O)C(=O)N[C@@H](CO)C(=O)N[C@@H](C)C(=O)N[C@@H](CC(N)=O)C(N)=O` [Example E4, Ac-Gly-Asp-Tyr-Pro-Lys-Phe-Ile-Ser-Ala-Asn-NH2] (Ac-GDYPKFISAN-NH2), the IC50 was greater than 40 µM.

The molecules below were run against BACE1 (Asp2, β-secretase, Memapsin-2) in HEK293 cells stably expressing human APP695 (UniProt P56817 46-501, limits assumed) (assay: cell-based or functional assay). Settings: not given.
Chain of BACE1 (Asp2, β-secretase, Memapsin-2) in HEK293 cells stably expressing human APP695 (P56817 46-501 limits assumed): as the sequence (P56817 46-501) above
With YPYFIPL[PEG4]EVN[MetSta(3S,4S)]VAEP-NH2 (also: TFA salt) [Tyr-Pro-Tyr-Phe-Ile-Pro-Leu-PEG(4)-Glu-Val-Asn-MetSta-Val-Ala-Glu-Pro-NH2 × TFA] the “IC 50, cellular Aβ-lowering assay (Aβ40 in supernatant of HEK293 cells expressing human APP695)” value (“IC 50, cellular Aβ-lowering assay” below) was 0.017 µM. In the case of YPYFIP[dK]G[dK]GEVN[Sta]VAE[dP]-NH2 (also: TFA salt (3 TFA)) [Tyr-Pro-Tyr-Phe-Ile-Pro-DLys-Gly-DLys-Gly-Glu-Val-Asn-Sta-Val-Ala-Glu-DPro-NH2 × 3TFA], the “IC 50, cellular Aβ-lowering assay” value is reported as 0.019 µM. With YPKFIPLG[dK]GEVN[Sta]VAE[dP]-NH2 (also: TFA salt (3 TFA)) [Tyr-Pro-Lys-Phe-Ile-Pro-Leu-Gly-DLys-Gly-Glu-Val-Asn-Sta-Val-Ala-Glu-DPro-NH2 × 3TFA] the “IC 50, cellular Aβ-lowering assay” value was 0.28 µM. In the case of YPYFIPLGGGEVN[MetSta]VAEP-NH2 (also: TFA salt) [Tyr-Pro-Tyr-Phe-Ile-Pro-Leu-Gly-Gly-Gly-Glu-Val-Asn-MetSta-Val-Ala-Glu-Pro-NH2 × TFA], the “IC 50, cellular Aβ-lowering assay” value is reported as 1.34 µM. For YPYFIPL[PEG4]EVN[MetSta(3S,4S)]VAE[dF]-NH2 (also: TFA salt) [Tyr-Pro-Tyr-Phe-Ile-Pro-Leu-PEG(4)-Glu-Val-Asn-MetSta-Val-Ala-Glu-DPhe-NH2 × TFA], the “IC 50, cellular Aβ-lowering assay” value was 0.43 µM.
